# Data published in patent US9895344B2, “Treating various disorders with 7,8-dihydroxyflavone and derivatives thereof” (EMORY UNIVERSITY, priority 2008, dated 2018).
# What was measured:
# TrkB = TrkB (Rattus norvegicus, UniProt Q63604); assay: TrkB activation in primary cortical neurons (p-TrkB Y817 immunoblotting); format: cell-based; design: endogenous in cells; host or cells: primary cortical neurons; conditions: FIG. 27 right
# Description: Primary cultured rat cortical neurons were prepared as follows. E17 rat pups were decapitated and cortex was extirpated, cross chopped, and suspended by pipetting for separation in 5% fetal calf serum (FCS), 5% horse serum (HS) DMEM. The cell suspension was then centrifuged at 250×g for 5 minutes. This operation was repeated again. Cells were seeded into polyethyleneimine-coated 10 cm^2 dishes and 12-well plates including coated-coverslips and incubated at 37° C. in 5% CO2/95% air. After 3 hours, the culture medium was changed to Neurobasal containing B-27 supplement (Invitrogen; Carlsbad, Calif.) and incubated for 4 days. For maintenance, half of the culture medium was changed to fresh Neurobasal/B27 every 4 days. After 1 week, the dished cultured neurons were ready for use.
# To compare the TrkB activation by the synthetic compounds of Examples 9 and 10 (see FIG. 26), primary cortical cultures were prepared. The cortical neurons were treated with 500 nM of various compounds for 30 min and collected the cell lysates. […] Replacing the H-bond acceptor O atom with hydrogen bond donor NH reduced its stimulatory effect. […] In comparison, 7,8-DHF provoked TrkB activation with the minimal concentration of 100 nM (FIG. 27, right panels).
# immobility time = assay: Forced swim test in TrkB F616A knockin mice with saline or 1NMPP1 pretreatment; format: in vivo; conditions: drugs for five days, FIG. 36
# Description: To assess whether the behavior responses by 7,8-DHF and its derivative are mediated by TrkB receptor, TrkB F616A knockin mice were utilized. The transgenic mice were subjected to saline or 1NMPP1 pretreatment (25 μM), respectively (drinking water provided one day prior to drug injection and maintained throughout whole experiment). The control and/or drugs were provided for five days. […] (Data presented in FIGS. 34, 35, and 36 as mean±SEM; *p<0.05 against vehicle, #P<0.01 against vehicle and ***P<0.0001 against vehicle, student t-test.)
# [1] = molecular target: T1, TrkB intracellular domain (ICD) (Rattus norvegicus, UniProt Q63604); assay: In vitro binding assay with [3H]7,8-dihydroxyflavone: TrkB ICD; conditions: gradual increments of [3H]-7,8-dihydroxyflavone
# T1 construct: purified TrkB extracellular domain (ECD) and intracellular domain (ICD) recombinant proteins
# Description: To determine whether 7,8-dihydroxyflavone physically and directly binds the TrkB receptor, in vitro binding assays were conducted with purified TrkB extracellular domain (ECD) and intracellular domain (ICD) recombinant proteins. Purified TrkB ECD and ICD (10 μg of each) were incubated with different concentrations of ^3H-7,8-dihydroxyflavone in 1 ml of binding buffer (0.05M Na/K phosphate buffer, pH 7.1, 200 mM NaCl) at 4° C. for 10 minutes. After the incubation, the reaction mixture was loaded on filter paper. The mixture was washed three times with Tris buffer (100 mM Tris, pH 7.1), and the dried filter paper was put into a small vial and subjected to liquid scintillation counter analysis. […] The value of the dissociate constant and the number of sites were obtained from Scatchard plots using the equation r/[L]free=n/Kd−r/Kd, where r is the ratio of the concentration of bound ligand to the total protein concentration and n is the number of binding sites.
# TrkA [2] = molecular target: TrkA (Mus musculus, UniProt Q3UFB7); assay: Immunoblotting of brain lysates from forced swim test mice: TrkA; format: in vivo; design: from tissue; host or cells: mouse brain; conditions: 5 mg/kg, 21 days oral, anti-p-TrkA 794, FIG. 35
# Description: To explore whether 4′-DMA-7,8-DHF and 7,8-DHF have any antidepressant effect, a forced swim test (6 minutes, immobility recorded in the last 4 minutes) was conducted after chronic treatment of male C57BL/6J mice (8 mice/group) for 21 days via oral injection.
# [3] = tested on: KA-induced apoptosis in hippocampus; assay: Kainic acid-induced apoptosis in mouse hippocampus (TUNEL); format: in vivo, C57BL/6 mice; conditions: 5 mg/kg intraperitoneally followed by 20 mg/kg KA, 5 days, FIG. 19
# From the text: Kainic acid (KA) is a potent agonist for the AMPA receptor. Peripheral injections of KA result in recurrent seizures and the subsequent degeneration of select populations of neurons in the hippocampus (Schauwecker and Steward, Proc. Natl. Acad. Sci. USA, 94:4103-8, 1997). KA induces neuronal cell death in a caspase-dependent and independent manners (Faherty et al., Brain Res. Mol. Brain. Res., 70:159-63, 1999; Glassford et al., Neurol. Res., 24:796-800, 2002; Liu et al., Mol. Cell, 29:665-78, 2008). To explore whether 7,8-dihydroxyflavone can block the neurotoxicity initiated by KA, C57BL/6 mice aged 60 days were intraperitoneally injected with either a single dose of 20% DMSO in saline, 20 mg/kg KA (Sigma), or 5 mg/kg of 7,8-dihydroxyflavone followed by 20 mg/kg of KA. In 5 days, the mice were anesthetized, perfused with 4% paraformaldehyde in 0.1M phosphate buffered saline, and the brains were removed, post-fixed overnight, and processed for paraffin embedding. Serial sections of the brain were cut to a thickness of 5 μm and mounted on slides (Superfrost-plus, Fisher; Pittsburgh, Pa.).
# TrkA [4] = molecular target: T2, TrkA (Homo sapiens, UniProt P04629); assay: Tyrosine phosphorylation of Trk receptors in transfected HEK293 cells: TrkA; format: cell-based; conditions: FIG. 15
# T2 construct: expressed in transfected cells; host or cells: HEK293
# From the text: To determine if 7,8-dihydroxyflavone promoted tyrosine phosphorylation of the other Trk receptors, HEK293 cells were transfected with various Trk receptors, followed by treatment with 7,8-dihydroxyflavone.
# hippocampal neurons = assay: Oxygen-Glucose Deprivation (OGD) of hippocampal neurons; format: cell-based
# Description: To explore whether 7,8-dihydroxyflavone exerts any protective effect on hippocampal neurons in Oxygen-Glucose Deprivation (OGD), primary preparations of neurons were treated with BDNF or various flavone derivatives for 30 minutes prior to OGD.
# [5] = tested on: KA-induced caspase-3 activation; assay: KA-induced neuronal cell death in TrkB F616A mice, oral TrkB agonists; format: in vivo, TrkB F616A knock-in mice
# Description: TrkB F616A knockin mice (2-3 months old) were fed 1NMPP1 (25 μM) in drinking water one day before pharmacological reagent treatment. The next day, the mice were orally injected with 7,8-DHF or 4′-DMA-7,8-DHF (5 mg/kg) 4 hours before kainic acid (20 mg/kg). The control mice were injected with saline, 1NMPP1, kainic acid alone or administrated 7,8-DHF or 4′-DMA-7,8-DHF 4 hours before kainic acid. In 4 days, the mice were sacrificed and brains were homogenized and ultra-centrifuged. The supernatant (40 μg) was employed for SDS-PAGE and immunoblotting analysis with indicated antibodies, respectively.
# To explore whether the neuroprotective effect of these small molecules is dependent on TrkB activation in vivo, TrkB F616A knock-in mice were used.
# Chain of TrkA (Mus musculus, UniProt Q3UFB7) (Q3UFB7 34-799): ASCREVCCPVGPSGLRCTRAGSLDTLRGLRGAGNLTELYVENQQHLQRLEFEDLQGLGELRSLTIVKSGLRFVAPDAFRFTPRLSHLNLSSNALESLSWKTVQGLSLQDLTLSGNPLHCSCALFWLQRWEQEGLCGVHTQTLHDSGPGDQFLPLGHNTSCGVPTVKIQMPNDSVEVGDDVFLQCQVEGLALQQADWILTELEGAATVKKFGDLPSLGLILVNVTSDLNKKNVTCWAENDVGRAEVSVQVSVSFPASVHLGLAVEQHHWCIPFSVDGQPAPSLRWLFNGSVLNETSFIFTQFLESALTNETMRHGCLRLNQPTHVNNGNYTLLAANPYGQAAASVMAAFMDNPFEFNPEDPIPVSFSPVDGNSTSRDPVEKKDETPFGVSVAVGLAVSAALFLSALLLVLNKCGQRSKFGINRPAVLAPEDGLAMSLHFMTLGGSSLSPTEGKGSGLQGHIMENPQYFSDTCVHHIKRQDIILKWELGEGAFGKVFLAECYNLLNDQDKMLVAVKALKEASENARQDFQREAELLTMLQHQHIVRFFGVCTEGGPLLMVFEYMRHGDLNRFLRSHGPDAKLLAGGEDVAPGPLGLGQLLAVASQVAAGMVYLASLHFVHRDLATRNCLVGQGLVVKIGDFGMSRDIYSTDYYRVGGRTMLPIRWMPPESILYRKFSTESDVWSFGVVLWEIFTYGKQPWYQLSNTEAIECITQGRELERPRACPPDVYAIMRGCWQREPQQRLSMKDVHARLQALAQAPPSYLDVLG
# T1 sequence (Q63604 454-821 limits assumed): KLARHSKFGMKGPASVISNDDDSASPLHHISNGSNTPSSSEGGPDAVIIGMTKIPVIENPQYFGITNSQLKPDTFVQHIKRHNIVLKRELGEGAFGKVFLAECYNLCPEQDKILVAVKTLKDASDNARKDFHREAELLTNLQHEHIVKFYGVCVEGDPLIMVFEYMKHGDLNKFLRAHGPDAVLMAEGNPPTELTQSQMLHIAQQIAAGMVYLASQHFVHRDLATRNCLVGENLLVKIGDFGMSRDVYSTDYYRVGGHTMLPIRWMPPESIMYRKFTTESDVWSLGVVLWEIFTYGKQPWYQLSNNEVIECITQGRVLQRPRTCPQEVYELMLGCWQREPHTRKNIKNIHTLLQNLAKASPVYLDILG
# T2 sequence (P04629 33-796, species assumed): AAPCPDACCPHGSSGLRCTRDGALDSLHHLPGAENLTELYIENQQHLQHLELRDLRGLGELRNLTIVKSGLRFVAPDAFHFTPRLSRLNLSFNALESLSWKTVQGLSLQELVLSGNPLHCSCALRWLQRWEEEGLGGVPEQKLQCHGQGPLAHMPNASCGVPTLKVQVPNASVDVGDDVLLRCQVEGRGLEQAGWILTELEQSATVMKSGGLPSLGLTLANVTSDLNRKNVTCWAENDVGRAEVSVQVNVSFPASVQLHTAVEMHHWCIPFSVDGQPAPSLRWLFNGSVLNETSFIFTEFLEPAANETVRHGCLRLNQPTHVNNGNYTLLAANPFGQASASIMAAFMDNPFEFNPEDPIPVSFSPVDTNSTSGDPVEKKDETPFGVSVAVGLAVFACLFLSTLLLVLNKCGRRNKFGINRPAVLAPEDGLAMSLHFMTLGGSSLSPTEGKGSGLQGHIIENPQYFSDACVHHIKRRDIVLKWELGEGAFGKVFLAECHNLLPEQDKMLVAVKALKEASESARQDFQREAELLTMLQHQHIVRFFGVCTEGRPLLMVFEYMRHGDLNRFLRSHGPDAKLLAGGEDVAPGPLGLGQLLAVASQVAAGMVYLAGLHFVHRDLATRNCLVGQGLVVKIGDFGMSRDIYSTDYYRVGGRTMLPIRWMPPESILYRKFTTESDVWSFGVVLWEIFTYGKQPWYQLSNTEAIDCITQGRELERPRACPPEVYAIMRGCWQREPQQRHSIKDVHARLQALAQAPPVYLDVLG
# Chain of TrkB (Q63604 32-821): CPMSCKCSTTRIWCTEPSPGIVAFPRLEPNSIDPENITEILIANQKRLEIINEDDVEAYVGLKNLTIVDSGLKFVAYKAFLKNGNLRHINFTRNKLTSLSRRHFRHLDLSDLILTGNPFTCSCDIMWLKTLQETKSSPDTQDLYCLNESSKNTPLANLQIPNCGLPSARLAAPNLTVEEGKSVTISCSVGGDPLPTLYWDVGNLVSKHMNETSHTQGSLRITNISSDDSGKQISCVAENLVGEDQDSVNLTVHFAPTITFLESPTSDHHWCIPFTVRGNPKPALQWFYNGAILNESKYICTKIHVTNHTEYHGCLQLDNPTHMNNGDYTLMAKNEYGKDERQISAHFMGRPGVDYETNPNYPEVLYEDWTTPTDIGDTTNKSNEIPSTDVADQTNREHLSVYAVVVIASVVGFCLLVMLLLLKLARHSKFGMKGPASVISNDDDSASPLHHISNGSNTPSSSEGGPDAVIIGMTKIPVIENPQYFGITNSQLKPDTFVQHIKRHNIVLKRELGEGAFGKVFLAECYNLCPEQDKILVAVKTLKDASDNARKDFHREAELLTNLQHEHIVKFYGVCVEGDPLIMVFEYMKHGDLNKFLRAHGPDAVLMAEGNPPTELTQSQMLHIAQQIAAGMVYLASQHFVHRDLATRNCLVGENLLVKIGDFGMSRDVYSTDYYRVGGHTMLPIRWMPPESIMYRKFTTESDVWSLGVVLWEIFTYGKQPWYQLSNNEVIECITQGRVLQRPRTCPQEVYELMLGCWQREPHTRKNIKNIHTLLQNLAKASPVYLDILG
structure (smiles),measurement,setting,value
"O=c1cc(-c2ccccc2)oc2c(O)c(O)ccc12 [7,8-dihydroxyflavone]",minimal concentration triggering TrkB activation (titration assay),TrkB,100 nM
same,immobility time after 1NMPP1 treatment,immobility time; 1NMPP1 25 μM in drinking water,"neither 4′-DMA-7,8-DHF nor 7,8-DHF had any significant effect"
same,"immobility time, saline group",immobility time,substantially reduced the immobility time
same,binding to TrkB ICD,[1],not ICD
same,TrkA activation in mouse brain,TrkA [2],not TrkA activation
same,KA-induced apoptosis in hippocampus,[3],decreased KA-induced apoptosis
same,tyrosine phosphorylation of TrkA receptor,TrkA [4],not
same,protective effect in OGD,"hippocampal neurons; 30 minutes prior to OGD, apoptotic analysis in 3 hours, FIG. 7 left",most potent protective effects among the compounds
same,titration assay of protection in OGD,hippocampal neurons; FIG. 7 right,protects neurons in a dose-dependent manner
same,KA-caused caspase-3 activation,"[5]; 5 mg/kg orally 4 hours before kainic acid (20 mg/kg), FIG. 31",markedly diminished
same,protective effect after 1NMPP1 pretreatment,"[5]; 1NMPP1 (25 μM) in drinking water, FIG. 31 top",abolished
same,TrkB phosphorylation after 1NMPP1 pretreatment,"[5]; FIG. 31, 2nd panel",notably blocked
